Assay [1] relates to SARS-CoV-2 (USA-WA1/2020) replicon in HuH-7 cells. It is filed as cell-based.
The subject of assay [2] is SARS-CoV-2. The conditions noted are these: in vivo; cited from earlier work.
In assay [3] the test system is SARS-CoV-2. As to conditions: human, in vivo; cited from earlier work.

Structures are written as SMILES.

Take `CC(C)(C)[C@H](NC(=O)C(F)(F)F)C(=O)N1C[C@H]2[C@@H]([C@H]1C(=O)N[C@H](C#N)C[C@@H]1CCNC1=O)C2(C)C` [Nirmatrelvir]: in assay [1], the EC50 (in general, the concentration that produces a half-maximal response) came out at 15 nM.
For `CC(C)C(=O)OC[C@H]1O[C@@H](n2ccc(NO)nc2=O)[C@H](O)[C@@H]1O` [molnupiravir], the “transmission to untreated contact animals” value with SARS-CoV-2 [2] is listed as “prevented such transmission”. Further, the “post-exposure prophylactic prevention of transmission versus placebo” value in the assay with SARS-CoV-2 [3] is on record as “neither was able to reach statistical significance over placebo”.

These data come from publication PMC11294338 (Nature Communications, 2024).
